SMILES strings stand for the structures. Counter-ions that a name gives are not always drawn.

For series [1], the target named is Adrenergic alpha2A (Homo sapiens, UniProt P08913). The series can be described thus: Adrenergic alpha2A binding. An excerpt: (§1) Further, the compounds of the invention may be tested in binding assays and functional activity assays by well known methods for other physiologically important receptors such as, but not limited to, the hERO channel, other serotonin receptors (specifically 5-HT1B, 5-HT1D, receptors, lack of agonist activity at 5-HT2B receptors, 5-HT2C, 5-HT5, 5-HT6, and 5-HT7 receptors), dopaminergic receptors (specifically D1, D2, and D3), GABAA receptors, adrenergic receptors and monoamine transporters.
Adrenergic alpha2A, sequence (P08913 whole entry): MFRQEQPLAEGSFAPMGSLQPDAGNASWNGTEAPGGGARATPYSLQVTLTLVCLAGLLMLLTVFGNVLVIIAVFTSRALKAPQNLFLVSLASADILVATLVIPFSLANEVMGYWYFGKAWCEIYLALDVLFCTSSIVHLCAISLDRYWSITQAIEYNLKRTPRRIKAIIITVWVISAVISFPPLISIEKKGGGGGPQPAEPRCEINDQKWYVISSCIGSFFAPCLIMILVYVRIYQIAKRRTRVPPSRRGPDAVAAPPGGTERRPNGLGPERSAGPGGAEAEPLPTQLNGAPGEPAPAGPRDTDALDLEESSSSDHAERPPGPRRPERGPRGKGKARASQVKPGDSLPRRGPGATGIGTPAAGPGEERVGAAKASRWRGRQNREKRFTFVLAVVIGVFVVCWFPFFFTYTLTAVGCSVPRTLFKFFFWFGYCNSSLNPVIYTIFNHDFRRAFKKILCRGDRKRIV

In series [2] the target is 5-HT2B (Homo sapiens, UniProt P41595). Description: 5-HT2B binding.
5-HT2B, sequence (P41595 whole entry, species assumed): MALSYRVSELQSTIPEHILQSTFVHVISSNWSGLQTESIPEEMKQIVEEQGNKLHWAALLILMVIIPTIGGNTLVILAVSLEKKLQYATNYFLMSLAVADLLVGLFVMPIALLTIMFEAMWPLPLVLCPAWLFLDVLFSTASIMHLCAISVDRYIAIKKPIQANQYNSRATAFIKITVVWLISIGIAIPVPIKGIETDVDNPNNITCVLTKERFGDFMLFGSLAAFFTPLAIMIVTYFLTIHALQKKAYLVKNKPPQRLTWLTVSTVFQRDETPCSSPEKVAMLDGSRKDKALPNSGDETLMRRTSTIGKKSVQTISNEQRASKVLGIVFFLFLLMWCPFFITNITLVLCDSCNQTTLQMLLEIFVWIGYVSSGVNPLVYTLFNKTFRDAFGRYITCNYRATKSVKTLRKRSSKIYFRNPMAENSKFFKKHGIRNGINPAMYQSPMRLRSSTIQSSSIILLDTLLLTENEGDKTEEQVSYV
From the text: as §1

Series [3] concerns the target hERG Channel (Homo sapiens, UniProt Q12809). Description: hERG channel.
From the text: as §1
In general terms: The hERG channel carries a current that helps repolarise heart muscle cells.

The target in series [4] is T1, recombinant H1 receptor (human) (Homo sapiens, UniProt P35367).
T1 construct: expressed in transfected cells; host or cells: HEK-293 (membranes)
T1 sequence (P35367 whole entry): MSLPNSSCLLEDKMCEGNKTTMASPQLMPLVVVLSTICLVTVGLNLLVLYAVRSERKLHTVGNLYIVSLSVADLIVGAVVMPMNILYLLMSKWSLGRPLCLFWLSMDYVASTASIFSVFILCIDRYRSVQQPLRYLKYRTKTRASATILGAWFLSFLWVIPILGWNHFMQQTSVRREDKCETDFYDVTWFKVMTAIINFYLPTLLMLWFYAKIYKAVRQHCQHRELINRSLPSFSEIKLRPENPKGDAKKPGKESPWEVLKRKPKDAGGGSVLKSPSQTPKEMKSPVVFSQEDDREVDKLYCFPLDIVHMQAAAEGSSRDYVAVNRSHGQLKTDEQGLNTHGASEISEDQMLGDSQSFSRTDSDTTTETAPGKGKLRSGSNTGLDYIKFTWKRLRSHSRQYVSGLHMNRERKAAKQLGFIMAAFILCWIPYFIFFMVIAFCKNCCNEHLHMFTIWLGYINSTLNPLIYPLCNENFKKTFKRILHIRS
The series can be described thus: H1 competition binding assay ([3H]-Pyrilamine, SPA). As to the method:
[^3H]-Pyrilamine binding experiments are carried out in SPA (scintillation proximity assay) 96-well format. Membranes used in this assay are prepared from HEK-293 cells stably expressing recombinant H1 receptor (human). The incubation is initiated by the addition of a mixture of WGA PVT SPA beads (1 mg/well, Perkin Elmer (MA, USA) RPNQ0001) and 3 μg membranes to assay buffer (67 mM Tris; pH 7.6) containing 3.5 nM [^3H]-Pyrilamine and varying concentrations of the test compound (10 point concentration response curves). Non-specific binding is determined in the presence of 10 μM Triprolidine. Samples are incubated for 4 hr. at room temperature (22° C.) and then read in a Microbeta Trilux.
Curves are evaluated using a 4-parameter logistic nonlinear equation to obtain the concentration of competitor causing 50% inhibition of radioligand binding (IC50). Equilibrium dissociation constants (Ki) are calculated according to the equation Ki=IC50/(1+L/Kd), where L equals the concentration of radioligand used in the experiment and Kd equals the equilibrium dissociation constant of the radioligand for the receptor, determined from standard saturation analysis or homologous competition experiments. Reported values for Ki, where n values are indicated, are shown as geometric mean±the standard error of the mean (SEM), with the number of replicate determinations indicated by n. […]

In series [5] the target is Adrenergic alpha1A (Homo sapiens, UniProt P35348). The series can be described thus: Adrenergic alpha1A binding.
Adrenergic alpha1A, sequence (P35348 whole entry): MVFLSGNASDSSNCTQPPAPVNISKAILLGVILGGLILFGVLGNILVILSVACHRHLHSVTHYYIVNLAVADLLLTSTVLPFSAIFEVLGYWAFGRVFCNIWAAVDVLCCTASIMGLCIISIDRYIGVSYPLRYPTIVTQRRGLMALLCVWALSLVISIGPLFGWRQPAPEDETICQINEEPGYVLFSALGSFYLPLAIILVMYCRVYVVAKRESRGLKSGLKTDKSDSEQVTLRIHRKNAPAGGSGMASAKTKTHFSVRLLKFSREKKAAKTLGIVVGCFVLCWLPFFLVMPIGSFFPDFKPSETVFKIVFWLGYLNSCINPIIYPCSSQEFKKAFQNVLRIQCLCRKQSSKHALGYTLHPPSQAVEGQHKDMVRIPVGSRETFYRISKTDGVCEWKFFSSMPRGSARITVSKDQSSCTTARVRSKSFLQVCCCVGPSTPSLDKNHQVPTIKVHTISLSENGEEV
From the text: as §1

Series [6] has as its target 5-HT5 (Homo sapiens, UniProt P47898). The series can be described thus: 5-HT5 binding.
From the text: as §1

In series [7] the test system is Rats. The series can be described thus: Sleep and behavioral monitoring in rats (EEG, EMG, motion). It is filed as in vivo. As to the method:
The compound of the present invention is tested in rats for its ability to increase the amount of sleep or decrease sleep interruption or both without undesired effects such as inhibition of REM sleep, waking motor impairment, and/or rebound insomnia. Test animals are continuously monitored by electro-encephalograms (EEG), electromyograms (EMG), and motion to measure cumulative nonREM sleep, cumulative total sleep, average sleep bout duration, longest sleep bout duration, rebound insomnia. REM sleep inhibition and locomotor activity intensity during wakefulness. Methods for such studies are known in the art (see for example methods described in Edgar D M, Seidel W F. Modafinil induces wakefulness without intensifying motor activity or subsequent rebound hypersomnolence in the rat. J Pharmacology & Experimental Therapeutics 1997; 283: 757-769; van Gelder R N, Edgar D M, Dement W C. Real-time automated sleep scoring: validation of a microcomputer-based system for mice. Sleep 1991, 14: 48-55; and Gross B A, Walsh C M, Turakhia A A, Booth V, Mashour G A, Poe G R. Open-source logic-based automated sleep scoring software using electrophysiological recordings in rats. J Neurosci Methods. 2009; 184(1):10-8.) Studies are conducted as follows:
Adult, male Wistar rats (approximately 270-300 g at time of surgery) are surgically fitted for chronic recording of EEG, EMG, and motion as follows: Rats are surgically prepared with a cranial implant consisting of four stainless steel screws for EEG recording (two frontal [3.9 mm anterior from bregma, and ±2.0 mm mediolaterally] and two occipital [6.4 mm posterior from bregma, ±5.5 mm mediolaterally]), and with two Teflon-coated stainless steel wires for EMG recording (positioned under the nuchal trapezoid muscles). All leads are soldered to a miniature connector (Microtech, Boothwyn, Pa.) prior to surgery. The implant assembly is affixed to the skull by the combination of the stainless steel EEG recording screws, cyanoacrylate applied between the implant connector and skull, and dental acrylic. Locomotor activity is monitored via a miniature transmitter (Minimitter PDT4000G, Philips Respironics, Bend, Oreg.) surgically placed into the abdomen. At least 3 weeks are allowed for recovery.
Each rat is housed individually within a microisolator cage modified with an inserted polycarbonate filter-top riser to allow more vertical headroom. A flexible cable that minimally restricts movement is connected at one end to a commutator afixed to the cage top and at the other end to the animal's cranial implant. Each cage is located within separate, ventilated compartments of a stainless steel sleep-wake recording chamber. Food and water are available ad libitum and the ambient temperature is maintained at about 23±1° C. A 24-hr light-dark cycle (LD 12:12) using fluorescent light is maintained throughout the study. Relative humidity averages approximately 50%. Animals are undisturbed for at least 30 hrs before and after each treatment.
The vehicle (placebo, methylcellulose 15 centipoise 0.25% in water) or one of the test compound dose levels is administered orally at 1 mL/kg pseudo-randomly such that no rat receives the same treatment twice, and no rat receives more than two of the 8 treatments in any one study. Each rat is removed from its cage for about a minute to be weighed and treated. At least 6 days “washout” period precede and follow each treatment. […]

Setting [8] is: threshold efficacy dose, 4 parameter logistic regression, 6 hr. after treatment, rat PO.

hERG Channel, sequence (Q12809 whole entry): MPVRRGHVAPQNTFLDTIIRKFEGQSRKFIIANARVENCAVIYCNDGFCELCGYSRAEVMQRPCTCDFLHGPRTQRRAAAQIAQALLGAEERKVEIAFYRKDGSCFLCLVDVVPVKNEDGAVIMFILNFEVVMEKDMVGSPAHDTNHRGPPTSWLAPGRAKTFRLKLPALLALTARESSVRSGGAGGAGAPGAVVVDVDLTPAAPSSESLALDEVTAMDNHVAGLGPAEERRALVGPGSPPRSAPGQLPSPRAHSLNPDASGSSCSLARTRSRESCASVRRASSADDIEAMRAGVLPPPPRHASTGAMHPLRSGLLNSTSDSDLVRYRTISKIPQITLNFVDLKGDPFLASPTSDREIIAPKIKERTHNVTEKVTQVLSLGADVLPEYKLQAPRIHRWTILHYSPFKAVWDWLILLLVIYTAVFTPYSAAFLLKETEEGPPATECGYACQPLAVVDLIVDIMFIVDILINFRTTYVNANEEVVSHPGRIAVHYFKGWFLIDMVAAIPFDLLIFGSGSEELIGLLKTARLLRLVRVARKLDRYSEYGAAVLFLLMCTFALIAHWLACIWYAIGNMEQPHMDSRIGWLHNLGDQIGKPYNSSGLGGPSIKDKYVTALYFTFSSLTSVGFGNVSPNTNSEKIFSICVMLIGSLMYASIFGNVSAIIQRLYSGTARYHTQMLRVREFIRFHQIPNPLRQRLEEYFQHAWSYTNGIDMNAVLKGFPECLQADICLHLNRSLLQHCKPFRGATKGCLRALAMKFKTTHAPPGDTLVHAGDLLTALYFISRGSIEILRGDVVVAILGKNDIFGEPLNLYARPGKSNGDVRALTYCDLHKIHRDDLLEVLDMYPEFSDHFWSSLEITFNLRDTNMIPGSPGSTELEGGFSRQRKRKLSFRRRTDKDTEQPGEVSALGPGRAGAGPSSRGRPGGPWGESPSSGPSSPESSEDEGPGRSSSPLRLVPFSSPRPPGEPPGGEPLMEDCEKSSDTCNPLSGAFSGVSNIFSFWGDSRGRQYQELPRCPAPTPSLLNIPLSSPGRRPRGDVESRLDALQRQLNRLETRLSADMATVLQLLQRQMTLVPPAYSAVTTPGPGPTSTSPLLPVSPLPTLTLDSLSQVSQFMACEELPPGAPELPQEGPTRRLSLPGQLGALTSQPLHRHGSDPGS
5-HT5, sequence (P47898 whole entry, species assumed): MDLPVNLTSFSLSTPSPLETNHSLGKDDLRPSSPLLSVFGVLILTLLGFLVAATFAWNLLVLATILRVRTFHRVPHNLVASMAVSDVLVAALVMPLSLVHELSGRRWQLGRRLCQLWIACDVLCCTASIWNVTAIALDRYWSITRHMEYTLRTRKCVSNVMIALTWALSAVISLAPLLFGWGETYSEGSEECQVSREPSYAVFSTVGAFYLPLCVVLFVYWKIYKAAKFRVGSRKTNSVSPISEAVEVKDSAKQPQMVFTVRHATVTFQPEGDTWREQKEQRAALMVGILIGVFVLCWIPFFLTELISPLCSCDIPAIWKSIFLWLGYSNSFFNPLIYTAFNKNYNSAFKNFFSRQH

What is called Ki is a dissociation constant, usually derived from enzyme kinetics or from competition with a known ligand. On to `Cc1ccc2c(c1)Oc1sc(C)cc1C(N1CCN(CC(C)(C)C(=O)O)CC1)=N2` [Example 2, 3-[4-(2,8-Dimethylthieno[2,3-b][1,5]benzoxazepin-4-yl)piperazin-1-yl]-2,2-dimethyl-propanoic acid dihydrochloride], for which the inhibition constant (Ki) in series [1] was more than 9020 nM. In series [2], this compound came in with a Ki of 95.8 nM. In addition, the “hERG Channel” value in series [3] was more than 100 µM. In addition, the Ki in series [4] amounted to 131 nM. Further, in series [5], the Ki is more than 10500 nM. This compound also registered a Ki in series [6] of more than 8830 nM. The “apparent REM sleep inhibition, statistical significance” value in series [7] (0.25 mg/kg and 0.025 mg/kg, rat) is reported as “not statistically significant”. Moreover, in series [7] (3 mg/kg, rat), the “REM sleep inhibition against the threshold value (−10 min.)” value was “exceeded the threshold value”, the “cumulative NREM sleep time (in words)” value is “significantly increase”, the “cumulative total sleep time (in words)” value was “significantly increase” and the “inhibition of locomotor intensity (LMI) (in words)” value was “without significant”. The “rebound insomnia (in words)” value in series [7] (3 mg/kg, rat) is “without significant rebound insomnia”. Moreover, in series [7] (rat sleep study), the “REM sleep inhibition (overall conclusion, in words)” value was “cannot be ruled out”. Further, the “rebound insomnia or reduction in LMI within 10 times the most conservative efficacy dose” value in series [7] (rat, efficacy dose 0.26 mg/kg) is recorded as “no undesired occurences of REM rebound insomnia, or reduction in LMI are observed”. In series [7] (setting [8]), the “Estimated efficacy dose, NREM accumulation = 30 min.” value is on record as 0.05 mg/kg; the “Estimated efficacy dose, average sleep bout (1.5-fold increase)” value was 0.21 mg/kg; the “Estimated efficacy dose, longest sleep bout (1.75-fold increase)” value was 0.26 mg/kg; the “Estimated efficacy dose, total sleep accumulation = 25 min.” value is 0.07 mg/kg.

The record behind these values is patent publication US9512140B2, “(Thieno[2,3-b][1,5]benzoxazepin-4-yl)piperazin-1-yl compounds as dual activity H1 inverse agonists/5-HT2A antagonists” (priority 2011, dated 2016).
